Data on 37 molecules can be found in ChEMBL document CHEMBL1128563, “Quantitative structural activity relationship study of bis-tetraazacyclic compounds. A novel series of HIV-1 and HIV-2 inhibitors” (J Med Chem, 1995).

Each structure is given as a SMILES string.

Assay [1] deals with Human immunodeficiency virus 1. The assay is described as follows: Antiretroviral activity against HIV-1 infected HUT-78 cells. In kind it is functional, organism-based. To be noted: Human immunodeficiency virus 1, HuT78; read-out: Log 1/EC50 (converted).
A further assay deals with HuT78. The assay is described as follows: Cellular cytotoxicity against HUT-78 cells. In kind it is functional. To be noted: Homo sapiens.
In assay [2] the test system is Human immunodeficiency virus 2. The assay is described as follows: Antiretroviral activity against HIV-2 infected HUT-78 cells. The conditions noted are these: Human immunodeficiency virus 2, HuT78; read-out: Log 1/EC50 (converted).
Assay [3] relates to Human immunodeficiency virus 1. The assay is described as follows: Inhibition of syncytium formation using HIV-1 IIIB strain gaint cell inhibition assay. To be noted: read-out: Log 1/EC50 (converted). In kind it is functional, organism-based.

On to `NCCCNCCNCCCNCc1ccc(CN2CCCNCCNCCCNCC2)cc1`, for which the EC50 was 372 nM in assay [1] and 708 nM in assay [2]. Moreover, it took 445 µM to reach half-maximal cytotoxicity with HuT78 (CC50).

Consider `c1ccc(CN2CCCNCCNCCCNCC2)c(CN2CCCNCCNCCCNCC2)c1`, for which, in assay [1], the EC50 is 1350 nM. This molecule also came in with a CC50 in the assay on HuT78 of 169 µM.

Consider `c1cc(CN2CCCNCCNCCCNCC2)ccc1CN1CCCNCCNCCNCCC1`, for which the EC50 in assay [1] is 7.94 nM; in assay [3] it was 12.6 nM; in assay [2], 56.2 nM. In addition, the CC50 in the assay on HuT78 worked out at 500 µM.

As for `c1cc(CCCN2CCCNCCNCCCNCC2)ccc1CCCN1CCCNCCNCCCNCC1`, the EC50 in assay [1] is 398 nM. In the assay on HuT78, this molecule yielded a CC50 of 283 µM.

Regarding `Cc1cc(CN2CCCNCCNCCCNCC2)c(C)cc1CN1CCCNCCNCCCNCC1`, the EC50 in assay [1] was 7.59 nM; in assay [3], 33.1 nM; in assay [2], 1.29 nM. Besides, in the assay with HuT78, the CC50 was 250 µM.

Consider `c1cc(CN2CCCNCCCNCCCNCCC2)ccc1CN1CCCNCCCNCCCNCCC1`, for which the EC50 in assay [1] was 9120 nM. In addition, the CC50 in the assay with HuT78 was determined as 49 µM.

Consider `COc1cc(CN2CCCNCCNCCCNCC2)c(OC)cc1CN1CCCNCCNCCCNCC1`, for which the EC50 was 7.08 nM in assay [1], 13.2 nM in assay [3] and 7.94 nM in assay [2]. It took 250 µM to reach half-maximal cytotoxicity with HuT78 (CC50).

Take `c1cc(CN2CCNCCCNCCNCC2)ccc1CN1CCNCCCNCCNCC1`: the results for the EC50 in assay [1] and in assay [2] were 166 nM and 234 nM, respectively. For the same molecule, the midpoint of cytotoxicity in the assay on HuT78, the CC50, lay at 216 µM.

For `CCN1CCCN(CC)CCN(Cc2ccc(CN3CCCN(CC)CCN(CC)CCCN(CC)CC3)cc2)CCCN(CC)CC1`, the EC50 in assay [1] was 7760 nM; in assay [3] it was 33900 nM. The molecule also registered a CC50 with HuT78 of 342 µM.

`c1cc(CC2CNCCNCCCNCCNC2)ccc1CC1CNCCNCCCNCCNC1`: the EC50 is 501 nM in assay [1] and 676 nM in assay [2]. In the assay with HuT78, this molecule showed a CC50 of 406 µM.

Consider `c1cc(CN2CCCNCCCNCCNCCC2)cc(CN2CCCNCCCNCCNCCC2)c1`, for which the EC50 in assay [1] was 324 nM; in assay [2] it was 646 nM. The molecule further gave a CC50 with HuT78 of 403 µM.

In the case of `Brc1cc(CN2CCCNCCNCCCNCC2)cc(CN2CCCNCCNCCCNCC2)c1`, the results for the EC50 in assay [1] and in assay [2] were 85.1 nM and 53.7 nM, respectively. Further, in the assay with HuT78, the CC50 turned out to be 192 µM.

Turning to `C1CNCCNCCCN[C@H]([C@@H]2CNCCCNCCNCCCN2)CNC1`, the EC50 in assay [1] is 158 nM. The same molecule yielded a CC50 in the assay with HuT78 of 369 µM.

For `C(CCCN1CCCNCCNCCCNCC1)CCN1CCCNCCNCCCNCC1`, the figures for the EC50 in assay [1] and in assay [2] were 692 nM and 708 nM, respectively. The molecule also showed a CC50 in the assay on HuT78 of 307 µM.

For `c1cc(CN2CCCNCCCNCCCNCC2)cc(CN2CCCNCCCNCCCNCC2)c1`, the EC50 in assay [1] is 2750 nM. For the same molecule, the CC50 with HuT78 is 191 µM.

Regarding `c1cc(CN2CCCNCCNCCCNCC2)cc(CN2CCCNCCNCCCNCC2)c1`, the EC50 in assay [1] is 33.9 nM; in assay [3] it was 4170 nM; in assay [2] it was 41.7 nM. The CC50 in the assay on HuT78 is 422 µM.

Consider `c1ncc(CN2CCCNCCNCCCNCC2)cc1CN1CCCNCCNCCCNCC1`, for which the EC50 was 31.6 nM in assay [1] and 70.8 nM in assay [2]. The molecule also returned a CC50 in the assay on HuT78 of 395 µM.

As for `c1ccc(-c2cc(CN3CCCNCCNCCCNCC3)cc(CN3CCCNCCNCCCNCC3)c2)cc1`, the EC50 is 204 nM in assay [1], 316 nM in assay [3] and 24.5 nM in assay [2]. Besides, the CC50 with HuT78 was found to be 198 µM.

Take `c1cc(CN2CCCNCCNCCCNCC2)nc(CN2CCCNCCNCCCNCC2)c1`: the EC50 is 97.7 nM in assay [1], 8130 nM in assay [3] and 66.1 nM in assay [2]. The CC50 with HuT78 is 409 µM.

`c1ccc2c(CN3CCCNCCNCCCNCC3)cc(CN3CCCNCCNCCCNCC3)cc2c1`: the EC50 in assay [1] is 158 nM; in assay [2] it was 79.4 nM. Further, the CC50 in the assay with HuT78 stood at 208 µM.

As to `C1CNCCNCCCN(CCCN2CCCNCCNCCCNCC2)CCNC1`, the EC50 in assay [1] was 138 nM; in assay [3] it was 12300 nM. Besides, it took 622 µM to reach half-maximal cytotoxicity in the assay with HuT78 (CC50).

For `Clc1cc(CN2CCCNCCNCCCNCC2)c(Cl)cc1CN1CCCNCCNCCCNCC1`, the figures for the EC50 in assay [1], in assay [3] and in assay [2] were 10.7 nM, 331 nM and 2.45 nM, respectively. Further, it took 59 µM to reach half-maximal cytotoxicity in the assay with HuT78 (CC50).

For the molecule `c1cc(CN2CCCNCCCNCCCNCCC2)cc(CN2CCCNCCCNCCCNCCC2)c1`, the EC50 in assay [1] is 16600 nM. Further, the CC50 with HuT78 amounted to 193 µM.

In the case of `Fc1c(F)c(CN2CCCNCCNCCCNCC2)c(F)c(F)c1CN1CCCNCCNCCCNCC1`, the EC50 in assay [1] is 7.94 nM; in assay [3], 31.6 nM; in assay [2], 7.94 nM. In the assay on HuT78, this molecule gave a CC50 of 48 µM.

With `c1cc(CN2CCCNCCNCCNCCC2)ccc1CN1CCCNCCCNCCCNCCC1`, the EC50 in assay [1] is 316 nM. For the same molecule, in the assay on HuT78, half-maximal cytotoxicity (CC50) was put at 121 µM.

In the case of `c1cc(CN2CCCNCCNCCNCCC2)ccc1CN1CCCNCCNCCNCCC1`, the EC50 in assay [1] was 25.1 nM; in assay [2] it was 58.9 nM. In the assay on HuT78, this molecule yielded a CC50 of 500 µM.

On to `Clc1c(Cl)c(CN2CCCNCCNCCCNCC2)c(Cl)c(CN2CCCNCCNCCCNCC2)c1Cl`, for which the EC50 is 200 nM in assay [1], 6030 nM in assay [3] and 2.51 nM in assay [2]. In the assay with HuT78, this molecule displayed a CC50 of 12 µM.

Regarding `C1CNCCNCCCN(CCN2CCCNCCNCCCNCC2)CCNC1`, the EC50 in assay [1] was 11200 nM. The same molecule gave a CC50 with HuT78 of 404 µM.

In the case of `c1ccc2c(CN3CCCNCCNCCCNCC3)ccc(CN3CCCNCCNCCCNCC3)c2c1`, the EC50 in assay [1] was 55 nM; in assay [3], 63.1 nM; in assay [2] it was 38.9 nM. Moreover, in the assay on HuT78, the CC50 came to 56 µM.

As for `O=[N+]([O-])c1cc(CN2CCCNCCNCCCNCC2)ccc1CN1CCCNCCNCCCNCC1`, the EC50 in assay [1] was 64.6 nM; in assay [3], 3240 nM; in assay [2] it was 72.4 nM. For the same molecule, in the assay on HuT78, the CC50 turned out to be 203 µM.

`Brc1c(CN2CCCNCCNCCCNCC2)cccc1CN1CCCNCCNCCCNCC1`: the figures for the EC50 in assay [1] and in assay [2] were 138 nM and 245 nM, respectively. The same molecule displayed a CC50 in the assay on HuT78 of 144 µM.

In turn, `c1cc(CN2CCCNCCNCCCNCC2)ccc1CN1CCCNCCCNCCCNCC1` gave a CC50 with HuT78 of 225 µM.

Take `O=[N+]([O-])c1cc(CN2CCCNCCNCCCNCC2)cc(CN2CCCNCCNCCCNCC2)c1`: the EC50 is 40.7 nM in assay [1], 64.6 nM in assay [3] and 56.2 nM in assay [2]. For the same molecule, the CC50 with HuT78 came out at 45 µM.

Take `c1cc(CN2CCCNCCCNCCNCCC2)cc(CN2CCCNCCNCCCNCC2)c1`: the values for the EC50 in assay [1] and in assay [2] were 85.1 nM and 759 nM, respectively. For the same molecule, half-maximal cytotoxicity in the assay with HuT78 (CC50) was put at 422 µM.

With `c1cc(CN2CCNCCCNCCNCC2)cc(CN2CCNCCCNCCNCC2)c1`, the EC50 is 40.7 nM in assay [1] and 61.7 nM in assay [2]. In the assay with HuT78, the CC50 is 192 µM.

As for `Fc1c(CN2CCCNCCNCCCNCC2)cccc1CN1CCCNCCNCCCNCC1`, the EC50 is 34.7 nM in assay [1] and 74.1 nM in assay [2]. This molecule yielded a CC50 in the assay with HuT78 of 202 µM.

In the case of `c1cc(CN2CCCNCCNCCCNCC2)ccc1CN1CCCNCCNCCCNCC1` [PLERIXAFOR], the figures for the EC50 in assay [1], in assay [3] and in assay [2] were 3.98 nM, 47.9 nM and 6.03 nM, respectively. Further, the CC50 in the assay on HuT78 turned out to be 241 µM.

For orientation: CC50 means the concentration that lowers cell viability or growth by half.
